Experiments:
[1] = molecular target: T1, PDE4D5: full-length human PDE4D5 isozyme (Homo sapiens, UniProt Q08499); experiment: PDE4 IC50 determination by Scintillation Proximity Assay (SPA), full-length PDE4D5; type: biochemical; details: cell lysate, [3H]cAMP SPA
T1 construct: made in house; host or cells: baculovirus infected insect cells (pFastBacHT)
Method: (§1) The enzyme was not purified from the cell lysates, so enzyme concentrations were not determined. Enzyme was stored in 50% glycerol at −20°.
(§2) IC50s were determined by Scintillation Proximity Assay (SPA). The principle of the assay is based on the fact that cAMP, the PDE4 substrate, binds weakly to Yittrium Silicate SPA beads, whereas AMP, the product of PDE4 hydrolysis binds strongly. Thus, the extent of PDE4 hydrolysis of a sample of [^3H]cAMP can be measured because only the [^3H]AMP produced by PDE4 hydrolysis will bind to the SPA beads and produce a scintillation signal.
(§3) In addition to the compound dilutions, each assay plate contained control wells with 1 μl of DMSO (to define 0% enzyme inhibition) or 1 μl of 200 μM roflumilast (to define 100% enzyme inhibition). Using a Beckman FX robot, 10 μl of [^3H] cAMP (Amersham TRK559) at […] in assay buffer (50 mM Tris, pH 7.5; 8.3 mM MgCl; 1.7 mM EGTA; 0.01% BSA) was transferred to each assay well. Next, 10 μl of PDE4 enzyme in assay buffer was added and the plates were shaken for 30 s. at 1000 rpm to start the cAMP hydrolysis reaction. The concentrations of enzyme used were: PDE4B, 80 ng/ml; PDE4D, 4 ng/ml; PDE4B2, 2.5 μl of 50% glycerol stock/ml; PDE4D5 0.083 μl of 50% glycerol stock/ml. Assay plates were covered and incubated for 30 min. at 30° C. Reactions were stopped by robotic addition of 10 μl of 5 mg/ml SPA beads (Amersham RPNQ0013) in 18 mM ZnSO4. The assay plates were covered with clear plastic film, centrifuged for 1 min. at 1000 RPM to settle the SPA beads, and counted using a Wallac TriLux scintillation counter. IC50's were calculated from the raw assay data by non-linear regression curve fitting using the Assay Explorer software package from MDL.

[2] = tested on: TNF-α release from whole blood cultures stimulated with LPS; experiment: IC50 by TNF alpha production upon stimulation of whole blood cultures with LPS; type: cell-based; details: human whole blood (buffy coat) culture, 100 ng/ml LPS, 4 hours; read-out: h TNFα IC50
Method: Compounds were assayed to generate IC50 numbers based on the inhibition of TNF-α release from whole blood cultures, using the following assay protocol (see Table 5 for compounds tested and results). Inhibition of PDE4B results in the inhibition of TNF-α release by whole blood cultures stimulated with lipopolysaccharide (LPS). The measurement of TNF-α release was used to assess compounds as PDE4B inhibitors.
Compounds were provided in DMSO at 20 mM and 2 μl per well was added to one row of a dilution plate. Added 98 μl of RPMI 1640 media with 2.5% heat inactivated FBS to each well containing compound. The same media with 2% DMSO was prepared and 60 μl was added to each of the empty wells in the dilution plate. The compound was serially diluted 1:3 (30 μl to 60 μl of media) for a total of 8 concentrations per compound. Wells were also prepared with 50 μM roflumilast and piclamilast as 100% inhibition controls, and 2% DMSO in media was used as 0% inhibition control. A 20 μl aliquot of each sample was transferred to an assay plate in duplicate.
Human buffy coat was obtained from the Stanford Medical School Blood Center and diluted with 7 volumes of RPMI 1640 media with 1% penicillin/streptomycin and 2.5% heat inactivated FBS. A 160 μl aliquot of the diluted blood was added to each well of the assay plates, mixed and incubated for 1 hour at 37° C. in 5% CO2. LPS (Sigma catalog number L2637) that had been diluted to 1 mg/ml in PBS and stored as 20 μl aliquots at −20° C. was thawed and diluted 1000× to 1 μg/ml. A 20 μl aliquot of this was added to each sample (final concentration 100 ng/ml LPS) after the 1 hour incubation. A background sample was prepared without addition of LPS as well. The samples were mixed on a shaker for one minute at 900 RPM and incubated for 4 hours at 37° C. in 5% CO2. The plates were then put on a shaker for one minute at 900 RPM, followed by centrifuging at 100×g for 10 minutes, deceleration setting of 5. The top 75 μl of supernatant was carefully pipetted to a new plate and frozen at −20° C.
A 50 μl aliquot of incubation buffer (Biosource International Immunoassay Kit:Human TNF-α catalog number KHC3011) was added to each well of a plate coated with monoclonal antibody specific for hTNF-α (Biosource kit). The supernatant blood samples were thawed and a 50 μl aliquot along with 50 μl of diluent buffer (Biosource kit) were added to incubation buffer and the samples were incubated for 2 hours at room temperature. The samples were washed 4 times with 300 μl/well wash buffer (Biosource kit). A 100 μl aliquot of biotinylated anti-TNFalpha (Biosource kit) was added and the samples incubated for 1 hour at room temperature. The samples were washed 4 times with 300 μl/well wash buffer. A 100 μl aliquot of Streptavidin-HRP solution (BioSource kit) was added and the samples incubated for 30 minutes at room temperature. The samples were washed 4 times with 300 μl/well wash buffer. A 100 μl aliquot of Chromagen (Biosource kit) was added and the samples incubated in the dark for 30 minutes. A 100 μl aliquot of stop solution (2N H2SO4) was added to each sample and samples were read at 450 nm on a WallacVictor for 0.1 sec/well.

[3] = molecular target: T2, PDE4B: catalytic domain of human PDE4B from S152-S528 (Homo sapiens, UniProt Q07343); experiment: PDE4 IC50 determination by Scintillation Proximity Assay (SPA), PDE4B catalytic domain; type: biochemical; details: [3H]cAMP SPA, 30 min at 30° C.
T2 construct: The catalytic domain of human PDE4B from S152-S528; His6 (N, cleaved yes); thrombin cleavage site (N, cleaved yes); made in house; host or cells: E. coli BL21 (DE3) RIL
T2 sequence (Q07343 324-700): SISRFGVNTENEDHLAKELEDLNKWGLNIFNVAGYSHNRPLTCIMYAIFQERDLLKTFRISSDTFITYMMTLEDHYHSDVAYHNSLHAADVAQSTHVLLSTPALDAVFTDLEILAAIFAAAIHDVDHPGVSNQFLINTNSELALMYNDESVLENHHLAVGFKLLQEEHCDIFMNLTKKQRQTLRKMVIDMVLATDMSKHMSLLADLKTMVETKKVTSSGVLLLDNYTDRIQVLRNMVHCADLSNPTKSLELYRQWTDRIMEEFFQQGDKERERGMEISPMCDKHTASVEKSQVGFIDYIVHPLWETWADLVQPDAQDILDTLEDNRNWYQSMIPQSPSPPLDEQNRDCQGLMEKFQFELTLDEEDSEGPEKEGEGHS
Method: as §2
Enzyme was stored in 50% glycerol at −20°.
as §3

[4] = molecular target: T3, PDE4B2: full-length human PDE4B2 isozyme (Homo sapiens, UniProt Q07343); experiment: PDE4 IC50 determination by Scintillation Proximity Assay (SPA), full-length PDE4B2; type: biochemical; details: cell lysate, [3H]cAMP SPA
T3 construct: made in house; host or cells: baculovirus infected insect cells (pFastBacHT)
T3 sequence (Q07343 with tags, fused parts or gaps isoform Q07343-2): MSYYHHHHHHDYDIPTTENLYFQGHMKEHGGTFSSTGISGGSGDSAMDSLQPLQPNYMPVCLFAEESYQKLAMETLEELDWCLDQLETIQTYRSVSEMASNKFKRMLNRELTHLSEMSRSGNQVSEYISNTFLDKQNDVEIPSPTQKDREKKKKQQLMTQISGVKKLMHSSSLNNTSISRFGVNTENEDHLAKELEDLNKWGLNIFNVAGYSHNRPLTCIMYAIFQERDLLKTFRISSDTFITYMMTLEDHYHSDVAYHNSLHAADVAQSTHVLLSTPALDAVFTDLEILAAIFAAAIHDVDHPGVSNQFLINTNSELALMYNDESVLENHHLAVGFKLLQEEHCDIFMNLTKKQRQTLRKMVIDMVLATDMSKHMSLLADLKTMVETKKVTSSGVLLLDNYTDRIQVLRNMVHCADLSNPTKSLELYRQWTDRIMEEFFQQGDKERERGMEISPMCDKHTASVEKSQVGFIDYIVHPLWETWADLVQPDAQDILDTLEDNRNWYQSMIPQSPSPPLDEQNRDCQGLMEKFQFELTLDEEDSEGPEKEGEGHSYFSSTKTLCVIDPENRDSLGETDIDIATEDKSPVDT
Method: as §1, §2, §3

T1 sequence (Q08499 with tags, fused parts or gaps isoform Q08499-6): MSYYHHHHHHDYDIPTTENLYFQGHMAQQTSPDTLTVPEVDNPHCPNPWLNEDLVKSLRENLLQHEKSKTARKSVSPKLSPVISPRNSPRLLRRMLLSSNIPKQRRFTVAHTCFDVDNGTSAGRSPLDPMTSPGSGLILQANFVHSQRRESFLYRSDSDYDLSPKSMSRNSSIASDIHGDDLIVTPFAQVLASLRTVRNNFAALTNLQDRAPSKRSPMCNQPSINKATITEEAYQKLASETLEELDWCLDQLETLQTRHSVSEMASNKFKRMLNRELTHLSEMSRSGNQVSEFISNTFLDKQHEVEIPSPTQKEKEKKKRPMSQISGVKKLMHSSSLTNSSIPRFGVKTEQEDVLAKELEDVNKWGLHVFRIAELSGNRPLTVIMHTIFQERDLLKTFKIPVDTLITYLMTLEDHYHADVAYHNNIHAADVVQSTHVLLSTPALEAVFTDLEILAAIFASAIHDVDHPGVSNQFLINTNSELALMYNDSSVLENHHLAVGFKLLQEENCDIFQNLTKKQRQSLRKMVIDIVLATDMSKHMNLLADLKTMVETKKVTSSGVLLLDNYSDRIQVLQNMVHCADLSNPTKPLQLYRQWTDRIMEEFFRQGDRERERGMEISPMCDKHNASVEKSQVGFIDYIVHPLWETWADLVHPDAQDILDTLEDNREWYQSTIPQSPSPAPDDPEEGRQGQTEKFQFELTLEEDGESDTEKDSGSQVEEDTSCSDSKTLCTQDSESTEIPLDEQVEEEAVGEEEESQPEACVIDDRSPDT

Structure (SMILES)	IC50 [1] [µM]	IC50 [2] [µM]	IC50 [3] [µM]	IC50 [4] [µM]
COc1ccc(-c2cn(S(=O)(=O)Cc3ccccc3)c3ncccc23)cc1OC [Compound 8, 3-(3,4-dimethoxy-phenyl)-1-phenylmethanesulfonyl-1H-pyrrolo[2,3-b]pyridine]	< 10	≤ 10	< 10	< 10
COc1ccc(-c2cn(S(=O)(=O)Cc3cccc(Cl)c3)c3ncccc23)cc1OC [Compound 9, 1-(3-chloro-phenylmethanesulfonyl)-3-(3,4-dimethoxy-phenyl)-1H-pyrrolo[2,3-b]pyridine]	< 10	≤ 10	< 10	< 10
COc1ccc(-c2cn(S(=O)(=O)c3ccc4ccccc4c3)c3ncccc23)cc1OC [Compound 11, 3-(3,4-Dimethoxy-phenyl)-1-(naphthalene-2-sulfonyl)-1H-pyrrolo[2,3-b]pyridine]	< 10	≤ 10	< 10	< 10
CCOc1ccc2ccccc2c1C(=O)n1cc(-c2ccc(S(C)(=O)=O)cc2)c2cccnc21 [Compound 84, (2-Ethoxy-naphthalen-1-yl)-[3-(4-methanesulfonyl-phenyl)-pyrrolo[2,3-b]pyridin-1-yl]-methanone]	< 10	≤ 10		< 10
CCOc1ccc2ccccc2c1C(=O)n1cc(-c2cccc(S(C)(=O)=O)c2)c2cccnc21 [Compound 86, (2-Ethoxy-naphthalen-1-yl)-[3-(3-methanesulfonyl-phenyl)-pyrrolo[2,3-b]pyridin-1-yl]-methanone]	< 10	≤ 10		< 10
CCOc1ccc2ccccc2c1C(=O)n1cc(-c2cccc(C(=O)OCc3ccccc3)c2)c2cccnc21 [Compound 87, 3-[1-(2-Ethoxy-naphthalene-1-carbonyl)-1H-pyrrolo[2,3-b]pyridin-3-yl]-benzoic acid benzyl ester]	< 10	≤ 10		< 10
COc1ccc2c(c1)c(-c1ccc(OC)c(OC)c1)cn2S(=O)(=O)c1cccc2cccnc12 [Compound 92, 8-[3-(3,4-Dimethoxy-phenyl)-5-methoxy-indole-1-sulfonyl]-quinoline]	< 10	≤ 10		< 10
COc1ccc(-c2cn(S(=O)(=O)c3cccc4cccnc34)c3ccc(Cl)cc23)cc1OC [Compound 93, 8-[3-(3,4-Dimethoxy-phenyl)-5-chloro-indole-1-sulfonyl]-quinoline]	< 10	≤ 10		< 10
COc1ccc(-c2cn(C(=O)c3ccc(C#N)cc3)c3ncccc23)cc1OC [Compound 106, 4-[3-(3,4-Dimethoxy-phenyl)-pyrrolo[2,3-b]pyridine-1-carbonyl]-benzonitrile]	< 10	≤ 10		< 10
CCOc1ccc2ccccc2c1C(=O)n1cc(-c2ccc(OC)c(OC3CCCC3)c2)c2cccnc21 [Compound 119, [3-(3-Cyclopentyloxy-4-methoxy-phenyl)-pyrrolo[2,3-b]pyridin-1-yl]-(2-ethoxy-naphthalen-1-yl)-methanone]	< 10	≤ 10		< 10
CCOc1ccc2ccccc2c1C(=O)n1cc(-c2cccc(C(N)=O)c2)c2cccnc21 [Compound 121, 3-[1-(2-Ethoxy-naphthalene-1-carbonyl)-1H-pyrrolo[2,3-b]pyridin-3-yl]-benzamide]	< 10	≤ 10		< 10
CCOc1ccc2ccccc2c1C(=O)n1cc(-c2cccc(NS(C)(=O)=O)c2)c2cccnc21 [Compound 122, N-{3-[1-(2-Ethoxy-naphthalene-1-carbonyl)-1H-pyrrolo[2,3-b]pyridin-3-yl]-phenyl}-methanesulfonamide]	< 10	≤ 10		< 10
COc1ccc(-c2cccc3[nH]ccc23)cc1OC [Compound 128, 4-(3,4-Dimethoxy-phenyl)-1H-indole]	< 10	≤ 10		< 10
COc1ccc(-c2ccc3[nH]ccc3c2)cc1OC [Compound 129, 5-(3,4-Dimethoxy-phenyl)-1H-indole]	< 10	≤ 10		< 10
COc1ccc(-c2ccc3c(ccn3S(=O)(=O)c3cccc4cccnc34)c2)cc1OC [Compound 130, 8-[5-(3,4-Dimethoxy-phenyl)-indole-1-sulfonyl]-quinoline]	< 10	≤ 10		< 10
COc1ccc(-c2cccc3c2ccn3S(=O)(=O)c2cccc3cccnc23)cc1OC [Compound 131, 8-[4-(3,4-Dimethoxy-phenyl)-indole-1-sulfonyl]-quinoline]	< 10	≤ 10		< 10
COc1ccc(-c2cnc3c(ccn3S(=O)(=O)c3ccccc3)c2)cc1OC [Compound 132, 1-Benzenesulfonyl-5-(3,4-dimethoxy-phenyl)-1H-pyrrolo[2,3-b]pyridine]	< 10	≤ 10		< 10
COc1ccc(-c2cnc3[nH]cc(C#Cc4ccccc4)c3c2)cc1OC [Compound 138, 5-(3,4-Dimethoxy-phenyl)-3-phenylethynyl-1H-pyrrolo[2,3-b]pyridine]	< 10	≤ 10		< 10
COC(=O)c1cccc(C#Cc2c[nH]c3ncc(-c4ccc(OC)c(OC)c4)cc23)c1 [Compound 139, 3-[5-(3,4-Dimethoxy-phenyl)-1H-pyrrolo[2,3-b]pyridin-3-ylethynyl]-benzoic acid methyl ester]	< 10	> 10		< 10
COc1ccc(-c2cnc3[nH]cc(C#Cc4cccc(C(=O)O)c4)c3c2)cc1OC [Compound 140, 3-[5-(3,4-Dimethoxy-phenyl)-1H-pyrrolo[2,3-b]pyridin-3-ylethynyl]-benzoic acid]	< 10	> 10		< 10
